The nature of one series: physchem. Conditions: organic solvent or mixture.
For series [1] the following is noted: 20° C.; cited from earlier work.

Values after ≈ are worked out from the molar mass of the structure shown. Counter-ions that a name gives are not always drawn.

A word on the solubility: it is how much of the substance goes into solution per volume. In the case of `O=C1CCc2ccc(OCCCCN3CCN(c4cccc(Cl)c4Cl)CC3)cc2N1` [Aripiprazole], in “physchem” (20 °C), the solubility came out at 400 mg/mL (≈ 892 mM).
Same read-out and setting: to `CNCC[C@H](Oc1cccc2ccccc12)c1cccs1` [Duloxetine hydrochloride] belongs 400 mg/mL; to `O=C(CCCN1CCC(O)(c2ccc(Cl)cc2)CC1)c1ccc(F)cc1` [Haloperidol], 110 mg/mL (≈ 293 mM).
The same measure, in the same setting: to `COc1cc(C(C)=O)ccc1OCCCN1CCC(c2noc3cc(F)ccc23)CC1` [Iloperidone] belongs 200 mg/mL (≈ 469 mM); to `CC12CC3CC(C)(C1)CC(N)(C3)C2` [Memantine hydrochloride], 130 mg/mL.
`O=C1CC[C@@]2(O)[C@H]3Cc4ccc(O)c5c4[C@@]2(CCN3CC2CC2)[C@H]1O5` [Naltrexone hydrochloride]: the solubility in the series “physchem” (benzyl alcohol, 20 °C) stood at 800 mg/mL.
On to `Cc1nc2n(c(=O)c1CCN1CCC(c3noc4cc(F)ccc34)CC1)CCCC2O` (stereo not shown) [Paliperidone], for which the solubility in “physchem” (60 °C) stood at 233 mg/mL (≈ 546 mM).
In the case of `Cc1nc2n(c(=O)c1CCN1CCC(c3noc4cc(F)ccc34)CC1)CCCC2` [Risperidone], in the series “physchem” (20 °C), the solubility came out at 500 mg/mL (≈ 1220 mM).
Regarding `CCN(C)C(=O)Oc1cccc([C@H](C)N(C)C)c1` [Rivastigmine tartrate], the solubility in the series “physchem” (20 °C) stood at 200 mg/mL.
For glycofurol, the solubility in water entry in series [1] is “soluble”.

These data come from US11931466B2, “Process for the preparation of drug loaded microparticles” (FERRING B.V., priority 2015, dated 2024).
